PubChem BioAssay (NCI)
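Where inhibition never reached the appropriate level, the endpoint shown equals the highest concentration tested. Otherwise, values were interpolated linearly from a five-concentration, 48-hour dose response in 96-well plates. TGI marks complete inhibition of growth.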

What was measured:
Test in all cases: inhibition of tumour cell growth, NCI panel, 48 h
[1] = system: 786-0 renal
[2] = system: A498 renal
[3] = system: A549 NSCLC
[4] = system: ACHN renal
[5] = system: BT-549 breast
[6] = system: CAKI-1 renal
[7] = system: CCRF-CEM leukemia
[8] = system: COLO 205 colon
[9] = system: DU-145 prostate
[10] = system: EKVX NSCLC
[11] = system: HCC-2998 colon
[12] = system: HCT-116 colon
[13] = system: HCT-15 colon
[14] = system: HL-60(TB) leukemia
[15] = system: HOP-62 NSCLC
[16] = system: HOP-92 NSCLC
[17] = system: HS 578T breast
[18] = system: HT29 colon
[19] = system: IGROV1 ovarian
[20] = system: K-562 leukemia
[21] = system: KM12 colon
[22] = system: LOX IMVI melanoma
[23] = system: M14 melanoma
[24] = system: MALME-3M melanoma
[25] = system: MDA-MB-231 breast
[26] = system: MDA-MB-435
[27] = system: MOLT-4 leukemia
[28] = system: NCI-H226 lung
[29] = system: NCI-H23 lung
[30] = system: NCI-H460 lung
[31] = system: NCI-H522 lung
[32] = system: NCI/ADR-RES ovarian
[33] = system: OVCAR-3 ovarian
[34] = system: OVCAR-4 ovarian
[35] = system: OVCAR-5 ovarian
[36] = system: OVCAR-8 ovarian
[37] = system: PC-3 prostate
[38] = system: RPMI-8226 leukemia
[39] = system: RXF 393 renal
[40] = system: SF-268 CNS
[41] = system: SF-295 CNS
[42] = system: SK-MEL-2 melanoma
[43] = system: SK-MEL-28 melanoma
[44] = system: SK-MEL-5 melanoma
[45] = system: SK-OV-3 ovarian
[46] = system: SNB-19 CNS
[47] = system: SNB-75 CNS
[48] = system: SR leukemia
[49] = system: SW-620 colon
[50] = system: T-47D breast
[51] = system: TK-10 renal
[52] = system: U251 CNS
[53] = system: UACC-257 melanoma
[54] = system: UACC-62 melanoma
[55] = system: UO-31 renal
[56] = system: MCF7 breast
[57] = system: SF-539 CNS
[58] = system: SN12C renal

With `Cc1ccc(S(=O)C[C@@]2(C(F)F)NC(=O)NC2=O)cc1` (stereo not given in full) as the compound, how does the TGI [1] read?
Its TGI is > 100 µM.

And the TGI [2]?
The TGI was > 100 µM.

What about the TGI [3] of the same compound?
Its TGI is > 100 µM.

What about the TGI [4] of the same compound?
The TGI was > 100 µM.

What about the TGI [5] of the same compound?
Its TGI is > 100 µM.

What about the TGI [6] of the same compound?
Its TGI is > 100 µM.

And the TGI [7]?
Its TGI is > 100 µM.

And the TGI [8]?
The TGI was > 100 µM.

And the TGI [9]?
Its TGI is > 100 µM.

What about the TGI [10] of the same compound?
The TGI was > 100 µM.

What about the TGI [11] of the same compound?
The TGI was > 100 µM.

What about the TGI [12] of the same compound?
Its TGI is > 100 µM.

What about the TGI [13] of the same compound?
The TGI was > 100 µM.

What about the TGI [14] of the same compound?
The TGI was > 100 µM.

And the TGI [15]?
The TGI was > 100 µM.

What about the TGI [16] of the same compound?
The TGI was > 100 µM.

And the TGI [17]?
Its TGI is > 100 µM.

And the TGI [18]?
The TGI was > 100 µM.

And the TGI [19]?
Its TGI is > 100 µM.

What about the TGI [20] of the same compound?
The TGI was > 100 µM.

What about the TGI [21] of the same compound?
Its TGI is > 100 µM.

And the TGI [22]?
Its TGI is > 100 µM.

What about the TGI [23] of the same compound?
The TGI was > 100 µM.

And the TGI [24]?
Its TGI is > 100 µM.

And the TGI [25]?
Its TGI is > 100 µM.

And the TGI [26]?
Its TGI is > 100 µM.

What about the TGI [27] of the same compound?
Its TGI is > 100 µM.

What about the TGI [28] of the same compound?
The TGI was > 100 µM.

And the TGI [29]?
Its TGI is > 100 µM.

And the TGI [30]?
The TGI was > 100 µM.

And the TGI [31]?
The TGI was > 100 µM.

And the TGI [32]?
The TGI was > 100 µM.

And the TGI [33]?
Its TGI is > 100 µM.

And the TGI [34]?
The TGI was > 100 µM.

And the TGI [35]?
The TGI was > 100 µM.

And the TGI [36]?
The TGI was > 100 µM.

What about the TGI [37] of the same compound?
Its TGI is > 100 µM.

And the TGI [38]?
The TGI was > 100 µM.

What about the TGI [39] of the same compound?
The TGI was > 100 µM.

And the TGI [40]?
Its TGI is > 100 µM.

And the TGI [41]?
The TGI was > 100 µM.

And the TGI [42]?
The TGI was > 100 µM.

And the TGI [43]?
The TGI was > 100 µM.

And the TGI [44]?
The TGI was > 100 µM.

And the TGI [45]?
Its TGI is > 100 µM.

And the TGI [46]?
The TGI was > 100 µM.

What about the TGI [47] of the same compound?
The TGI was > 100 µM.

And the TGI [48]?
Its TGI is > 100 µM.

And the TGI [49]?
Its TGI is > 100 µM.

And the TGI [50]?
The TGI was > 100 µM.

And the TGI [51]?
Its TGI is > 100 µM.

What about the TGI [52] of the same compound?
The TGI was > 100 µM.

And the TGI [53]?
Its TGI is > 100 µM.

And the TGI [54]?
The TGI was > 100 µM.

And the TGI [55]?
The TGI was > 100 µM.

`COP(=O)(OC)C(O)/C=C(\Cl)c1ccc(Cl)cc1` (stereo not given) was tested. Which TGI [1] did it give?
Its TGI is 39.3 µM.

What about the TGI [3] of the same compound?
Its TGI is > 100 µM.

What about the TGI [4] of the same compound?
Its TGI is > 100 µM.

And the TGI [6]?
The TGI was > 100 µM.

And the TGI [7]?
The TGI was 49 µM.

What about the TGI [8] of the same compound?
The TGI was > 100 µM.

And the TGI [9]?
The TGI was > 100 µM.

What about the TGI [10] of the same compound?
The TGI was > 100 µM.

And the TGI [12]?
The TGI was 36.2 µM.

And the TGI [13]?
The TGI was > 100 µM.

What about the TGI [14] of the same compound?
Its TGI is > 100 µM.

And the TGI [15]?
Its TGI is > 100 µM.

And the TGI [16]?
The TGI was 45.3 µM.

What about the TGI [17] of the same compound?
Its TGI is > 100 µM.

And the TGI [18]?
Its TGI is > 100 µM.

What about the TGI [19] of the same compound?
The TGI was > 100 µM.

What about the TGI [20] of the same compound?
The TGI was > 100 µM.

And the TGI [21]?
The TGI was > 100 µM.

And the TGI [22]?
The TGI was 52.1 µM.

And the TGI [23]?
Its TGI is > 100 µM.

What about the TGI [24] of the same compound?
Its TGI is > 100 µM.

And the TGI [56]?
Its TGI is > 100 µM.

What about the TGI [25] of the same compound?
Its TGI is > 100 µM.

And the TGI [26]?
The TGI was > 100 µM.

What about the TGI [27] of the same compound?
The TGI was 86.1 µM.

And the TGI [28]?
Its TGI is > 100 µM.

What about the TGI [29] of the same compound?
Its TGI is 50.8 µM.

What about the TGI [30] of the same compound?
Its TGI is > 100 µM.

What about the TGI [31] of the same compound?
Its TGI is > 100 µM.

And the TGI [32]?
The TGI was 55.7 µM.

And the TGI [33]?
Its TGI is 43.3 µM.

What about the TGI [34] of the same compound?
Its TGI is > 100 µM.

What about the TGI [35] of the same compound?
The TGI was > 100 µM.

And the TGI [36]?
Its TGI is 54.6 µM.

What about the TGI [37] of the same compound?
Its TGI is > 100 µM.

What about the TGI [38] of the same compound?
The TGI was 63.4 µM.

What about the TGI [39] of the same compound?
The TGI was > 100 µM.

What about the TGI [40] of the same compound?
The TGI was > 100 µM.

And the TGI [41]?
Its TGI is > 100 µM.

And the TGI [57]?
Its TGI is > 100 µM.

What about the TGI [42] of the same compound?
Its TGI is > 100 µM.

What about the TGI [43] of the same compound?
Its TGI is > 100 µM.

And the TGI [44]?
The TGI was 67.8 µM.

And the TGI [45]?
Its TGI is > 100 µM.

And the TGI [58]?
The TGI was > 100 µM.

And the TGI [46]?
The TGI was > 100 µM.

What about the TGI [47] of the same compound?
The TGI was > 100 µM.

What about the TGI [48] of the same compound?
The TGI was 59.1 µM.

And the TGI [49]?
The TGI was > 100 µM.

And the TGI [50]?
The TGI was > 100 µM.

And the TGI [51]?
The TGI was > 100 µM.

And the TGI [52]?
Its TGI is > 100 µM.

And the TGI [53]?
Its TGI is 84.6 µM.

And the TGI [54]?
Its TGI is > 100 µM.

What about the TGI [55] of the same compound?
The TGI was > 100 µM.
